Results published in patent publication US12702696B2, “Methods and composition for modulating immune response and immune homeostasis” (Massachusetts Institute of Technology, priority 2019, dated 2026).
Ends that are not written are not given here.

Legend:
[1] = mice; GAL2 selective agonist; cited from earlier work
[2] = tested on: sympathetic (TH+) and sensory (tdTomato+) fibers of LNs; test: 6-OHDA-mediated chemical sympathectomy, sensory and sympathetic fiber density in popliteal LNs (whole-mount imaging); format: in vivo, mouse; details: 6-OHDA 100 mg kg-1 intraperitoneally daily for 5 days vs saline; popliteal LNs of Nav1.8Cre/+; Rosa26LSL-tdTomato/+ mice
From the text: To address the interdependence between these two types of innervation, Applicants assessed the sensitivity of each type of fiber to 6-hydroxydopamine (6-OHDA)-mediated chemical sympathectomy or diphtheria toxin A (DTA)-mediated genetic ablation of Nav1.8 lineage neurons. […] Thus, Applicants unexpectedly discovered that LNs receive not only sympathetic but also sensory innervation, two categorically different types of innervation that are anatomically independent of each other.
Whole mount immunohistochemistry of LNs was performed using an iDISCO protocol with methanol pretreatment optimized for LNs (Renier et al., 2014). Briefly, adult animals (6-12 weeks) were perfused with 25 mL of PBS (Hyclone) and 25 mL of 4% paraformaldehyde (PFA, Sigma) sequentially at room temperature (RT). Peripheral lymph nodes (PLNs), including popliteal and inguinal lymph nodes (popLNs and iLNs), were postfixed with 4% PFA for 1 hr at 4° C. […]
For sympathetic denervation, the stock solution of 6-hydroxydopamine (6-OHDA) (Sigma) was prepared in water at 42 mg/mL and stored at −20° C. […] Animals were analyzed the following day.
For quantification of innervation density of LNs as in FIGS. 1C-1F, relevant channels were first masked with the LN isosurface as described above. […]

## Galanin 2-11 amide: GAL2 selective galanin receptor agonist, CAS #367518-31-8 (WTLNSAGYLL-NH2; UniProt P22466 34-43, looked up, fragment)
[1]
  anticonvulsant activity: anticonvulsant in mice

## NCCc1cc(O)c(O)cc1O [6-OHDA, 6-hydroxydopamine]
[2]
  effect on sensory innervation (tdTomato+ fiber density) of LNs: not compromised
  effect on sympathetic innervation (TH+ fiber density) of LNs: efficient sympathetic denervation of LNs
